# From patent US10206907B2, “Compounds useful for the treatment of degenerative and inflammatory diseases” (GALAPAGOS NV, priority 2008, dated 2019)
# Key:
# [1] = target: Recombinant human JAK1 catalytic domain (Homo sapiens (Human), UniProt P23458); experiment: JAK1 inhibition assay; format: biochemical; settings: semi-quantitative score
# Procedure, shortened: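 Radiometric assay read by scintillation counting after phosphoric-acid washes. Percent inhibition calculated from cpm relative to vehicle and 10 μM staurosporine control. IC50 derived from compound dose-dilution series.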
# [2] = target: Recombinant human JAK2 catalytic domain (Homo sapiens (Human), UniProt O60674); experiment: JAK2 inhibition assay; format: biochemical; settings: semi-quantitative score
# Recombinant human JAK2 catalytic domain, sequence (O60674 808-1132): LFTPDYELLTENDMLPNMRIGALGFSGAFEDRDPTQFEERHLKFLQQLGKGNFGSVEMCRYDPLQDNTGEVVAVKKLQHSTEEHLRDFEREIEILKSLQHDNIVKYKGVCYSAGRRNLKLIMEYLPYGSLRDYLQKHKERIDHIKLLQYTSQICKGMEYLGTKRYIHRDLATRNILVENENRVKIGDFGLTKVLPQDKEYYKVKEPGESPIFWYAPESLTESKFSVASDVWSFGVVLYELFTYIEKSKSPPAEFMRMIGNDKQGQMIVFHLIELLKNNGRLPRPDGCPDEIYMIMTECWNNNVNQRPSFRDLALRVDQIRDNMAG
# Procedure, shortened: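 Radiometric kinase reactions ran for 90 min at 30 °C and were stopped with phosphoric acid, then washed and counted by scintillation. Percent inhibition was set relative to vehicle and to 10 μM staurosporine background. IC50 was derived from dose-dilution series.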
# [3] = Microsomal stability, human liver microsomes; format: in vitro ADME; settings: percentage of compound remaining after 60 minutes, 3 μM compound
# Procedure: (§1) 40 μL of deionised water was added to a well of a polypropylene Matrix 2D barcode labelled storage tube (Thermo Scientific) and pre-incubated at 37° C.
# (§2) A co-factor containing MgCl2, glucose-6-phosphate and NADP+ was prepared in deionised water and placed on ice before use.
# (§3) A final working solution containing liver microsomes (Xenotech of a species of interest (human, mouse, rat, dog), previously described G6PDH and co-factors was prepared and this mix was incubated for no longer than 20 minutes at room temperature.
# (§4) 30 μL of the pre-heated compound dilution was added to 40 μL of pre-heated water in the Matrix tubes and 30 μL of the microsomal mix was added.
# (§5) To measure percentage remaining of compound at time zero MeOH or ACN was added (1:1) to the well before adding the microsomal mix.
# (§6) The samples which were not stopped are incubated at 37° C., 300 rpm and after 1 hour of incubation the reaction was stopped with MeOH or ACN (1:1).
# (§7) After stopping the reaction the samples were mixed and placed on ice for 30 min to precipitate the proteins.
# (§8) The samples were analyzed on LCMS with a flow rate of 1 mL/min. Solvent A was 15 mM ammonia and solvent B was methanol or acetonitrile, depending on the stop solution used. […] The percentage remaining after 1 hour incubation was calculated from time 0 and was calculated as the percentage remaining.
# (§9) The data on microsomal stability are expressed as a percentage of the total amount of compound remaining after 60 minutes.
# [4] = Microsomal stability, rat liver microsomes; format: in vitro ADME; settings: percentage of compound remaining after 60 minutes, 3 μM compound
# Procedure: as §1, §2, §3, §4, §5, §6, §7, §8, §9
# [5] = test system: JAK-STAT signalling in HeLa cells; experiment: JAK-STAT signalling assay (OSM-triggered pSTAT1(2)-luciferase reporter in HeLa cells); format: cell-based; settings: Homo sapiens; HeLa cells, OSM-triggered pSTAT1(2)-luciferase reporter; read-out: STAT signalling EC50
# Procedure: HeLa cells were maintained in Dulbecco's Modified Eagle's Medium (DMEM) containing 10% heat inactivated fetal calf serum, 100 U/mL penicillin and 100 μg/mL streptomycin. HeLa cells were used at 70% confluence for transfection. 20,000 cells in 87 μL cell culture medium were transiently transfected with 40 ng pSTAT1(2)-luciferase reporter (Panomics), 8 ng of LacZ reporter as internal control reporter and 52 ng of pBSK using 0.32 μL Jet-PEI (Polyplus) as transfection reagent per well in 96-well plate format. After overnight incubation at 37° C., 10% CO2, transfection medium was removed.
# 40 μL of cell lysate was used to read β-galactosidase activity by adding 180 μL βGal solution (30 μl ONPG 4 mg/mL+150 μL β-Galactosidase buffer (0.06 M Na2HPO4, 0.04 M NaH2PO4, 1 mM MgCl2)) for 20 min.
# Luciferase activity was measured using 40 μL cell lysate plus 40 μl of Steadylite® as described by the manufacturer (Perkin Elmer), on the Envision (Perkin Elmer).
# The positive and negative controls were used to calculate z’ and ‘percent inhibition’ (PIN) values.
# PIN values were plotted for compounds tested in dose-response and EC50 values were derived.
# [6] = test system: MMP13 in SW1353 cells; experiment: OSM/IL-1β signaling assay (MMP13 levels in SW1353 cells); format: cell-based; settings: Homo sapiens; SW1353 cells, OSM and IL-1β triggered, MMP13 levels 48 hours after triggering; read-out: MMP13 EC50;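 further: secreted MMP13 captured by antibody, activated with APMA and its activity read by fluorescence, inhibition scaled between vehicle-treated triggered wells (0%) and untriggered wells (100%)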
# Procedure: The cells were seeded in 96 well plates at 15,000 cells/well in a volume of 120 μL DMEM (Invitrogen) containing 10% (v/v) FBS and 1% penicillin/streptomycin (InVitrogen) incubated at 37° C. […] MMP13 activity was measured using an antibody capture activity assay. […] Next the wells were washed twice with PBS+0.05% Tween followed by MMP13 activation by addition of 35 μL of a 1.5 mM 4-Aminophenylmercuric acetate (APMA) (Sigma, A9563) solution and incubation at 37° C. for 1 hour. […] Percentage inhibition=((fluorescence determined in the presence of vehicle−fluorescence determined for sample with test compound present) divided by (fluorescence determined in the presence of vehicle−fluorescence determined for sample without trigger))*100%.
# Recombinant human JAK1 catalytic domain, sequence (P23458 850-1154): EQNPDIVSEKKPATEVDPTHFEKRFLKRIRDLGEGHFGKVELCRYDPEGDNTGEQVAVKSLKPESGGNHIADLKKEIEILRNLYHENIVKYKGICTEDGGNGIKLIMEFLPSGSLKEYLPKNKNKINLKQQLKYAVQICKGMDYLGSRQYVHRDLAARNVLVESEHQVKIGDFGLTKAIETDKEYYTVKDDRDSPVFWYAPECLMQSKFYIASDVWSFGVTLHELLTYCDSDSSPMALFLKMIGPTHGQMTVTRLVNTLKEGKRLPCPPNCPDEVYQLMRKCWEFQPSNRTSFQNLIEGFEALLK
Compound,IC50 [1],IC50 [2],Microsomal Stability Human (%) [3],Microsomal Stability Rat (%) [4],EC50 [5],EC50 [6]
"O=C(Nc1nc[nH]n1)c1ccc(-c2cccc3nc(NC(=O)C4CC4)nn23)cc1 [Compound 331, 4-[2-(Cyclopropanecarbonyl-amino)-[1,2,4]triazolo[1,5-a]pyridin-5-yl]-N-(1H-1,2,4-triazol-3-yl)-benzamide]",101 to 500 nM,< 100 nM,* (* 0-25),* (* 0-25),,
"O=C(Nc1nc2cccc(-c3ccc(C(=O)N4CCCC(c5ccccc5)C4)cc3)n2n1)C1CC1 (centres unmarked) [Compound 169, N-(5-(4-(3-phenylpiperidine-1-carbonyl)phenyl)-[1,2,4]triazolo[1,5-a]pyridin-2-yl)cyclopropanecarboxamide]",< 100 nM,,* (* 0-25),* (* 0-25),> 1000 nM,> 1000 nM
"O=C(Nc1ccncc1)c1ccc(-c2cccc3nc(NC(=O)C4CC4)nn23)cc1 [Compound 25, 4-(2-(cyclopropanecarboxamido)-[1,2,4]triazolo[1,5-a]pyridin-5-yl)-N-(pyridin-4-yl)benzamide]",< 100 nM,,* (* 0-25),* (* 0-25),> 1000 nM,> 1000 nM
Cn1cc(-c2ccc(COc3ccc(-c4cccc5nc(NC(=O)C6CC6)nn45)cc3)cn2)cn1 [Compound 178],< 100 nM,,* (* 0-25),** (** 26-50),> 1000 nM,> 1000 nM
"O=C(Nc1ccc(N2CCOCC2)nc1)c1ccc(-c2cccc3nc(NC(=O)C4CC4)nn23)cc1 [Compound 204, 4-[2-(Cyclopropanecarbonyl-amino)-[1,2,4]triazolo[1,5-a]pyridin-5-yl]-N-(6-morpholin-4-yl-pyridin-3-yl)-benzamide]",< 100 nM,,* (* 0-25),* (* 0-25),> 1000 nM,
"O=C(NC1CC1)c1ccc(-c2cccc3nc(NC(=O)C4CC4)nn23)cc1 [Compound 11, 4-(2-(cyclopropanecarboxamido)-[1,2,4]triazolo[1,5-a]pyridin-5-yl)-N-cyclopropylbenzamide]",101 to 500 nM,,**** (**** 76-100),**** (**** 76-100),,
"O=C(Nc1cccnc1)c1ccc(-c2cccc3nc(NC(=O)C4CC4)nn23)cc1 [Compound 206, 4-[2-(Cyclopropanecarbonyl-amino)-[1,2,4]triazolo[1,5-a]pyridin-5-yl]-N-pyridin-3-yl-benzamide]",< 100 nM,101 to 500 nM,**** (**** 76-100),*** (*** 51-75),> 1000 nM,
"COc1ccc(NC(=O)c2ccc(-c3cccc4nc(NC(=O)C5CC5)nn34)cc2)cn1 [Compound 203, 4-[2-(Cyclopropanecarbonyl-amino)-[1,2,4]triazolo[1,5-a]pyridin-5-yl]-N-(6-methoxy-pyridin-3-yl)-benzamide]",< 100 nM,101 to 500 nM,* (* 0-25),*** (*** 51-75),> 1000 nM,
"CN(Cc1ccccc1)c1ccc(-c2cccc3nc(NC(=O)C4CC4)nn23)cc1 [Compound 157, N-(5-(4-(benzyl(methyl)amino)phenyl)-[1,2,4]triazolo[1,5-a]pyridin-2-yl)cyclopropanecarboxamide]",< 100 nM,,* (* 0-25),* (* 0-25),> 1000 nM,
"O=C(Nc1nc2cccc(-c3ccc(C(=O)N4CCCNCC4)cc3)n2n1)C1CC1 [Compound 28, N-(5-(4-(1,4-diazepane-1-carbonyl)phenyl)-[1,2,4]triazolo[1,5-a]pyridin-2-yl)cyclopropanecarboxamide]",101 to 500 nM,> 1000 nM,,,> 1000 nM,> 1000 nM
